Earlier results as cited in patent US10548876B2 (Race Oncology Ltd., priority 2013, dated 2020).
Counter-ions that a name gives are not always drawn. Like-named read-outs stand apart in the source and are kept apart here.

What was measured:
[1] = test system: telomerase-expressing cells and ALT-positive cell lines
telomerase = conditions: by interfering with substrate recognition
[2] = target: glycogen synthase kinase-3β (GSK-3β) (Homo sapiens, UniProt P49841)
[3] = over 96 hr
[4] = 72-hr infusion
[5] = one report; interpreted as tissue sequestration with depot effect
[6] = test system: refractory malignant melanoma
double-stranded DNA = conditions: under physiological conditions, threading mode
[7] = test system: colon 26, Lewis lung, Ridgway osteosarcoma, B16, Lieberman plasma cell, P388 or L1210 cancer cells
[8] = triphasic elimination
[9] = not given; remark: listed apart in the source
P-glycoprotein = P-glycoprotein (Homo sapiens, UniProt P08183)
human colon cancer = human colon cancer tested in vitro or in vivo
[10] = not given; remark: listed apart in the source
[11] = 5 day schedule of 60 min infusions
[12] = in vivo
[13] = test system: hepatic microsomal enzymes; conditions: specific metabolites not identified
metastatic breast cancer = conditions: patients with metastatic breast cancer
[14] = not given; remark: listed apart in the source
[15] = not given; remark: listed apart in the source
[16] = physiologic pH
[17] = local injection; physically decomposes bisantrene
[18] = patients, 90 min infusion at 260 mg/m^2

Sequence of P-glycoprotein (P08183 whole entry): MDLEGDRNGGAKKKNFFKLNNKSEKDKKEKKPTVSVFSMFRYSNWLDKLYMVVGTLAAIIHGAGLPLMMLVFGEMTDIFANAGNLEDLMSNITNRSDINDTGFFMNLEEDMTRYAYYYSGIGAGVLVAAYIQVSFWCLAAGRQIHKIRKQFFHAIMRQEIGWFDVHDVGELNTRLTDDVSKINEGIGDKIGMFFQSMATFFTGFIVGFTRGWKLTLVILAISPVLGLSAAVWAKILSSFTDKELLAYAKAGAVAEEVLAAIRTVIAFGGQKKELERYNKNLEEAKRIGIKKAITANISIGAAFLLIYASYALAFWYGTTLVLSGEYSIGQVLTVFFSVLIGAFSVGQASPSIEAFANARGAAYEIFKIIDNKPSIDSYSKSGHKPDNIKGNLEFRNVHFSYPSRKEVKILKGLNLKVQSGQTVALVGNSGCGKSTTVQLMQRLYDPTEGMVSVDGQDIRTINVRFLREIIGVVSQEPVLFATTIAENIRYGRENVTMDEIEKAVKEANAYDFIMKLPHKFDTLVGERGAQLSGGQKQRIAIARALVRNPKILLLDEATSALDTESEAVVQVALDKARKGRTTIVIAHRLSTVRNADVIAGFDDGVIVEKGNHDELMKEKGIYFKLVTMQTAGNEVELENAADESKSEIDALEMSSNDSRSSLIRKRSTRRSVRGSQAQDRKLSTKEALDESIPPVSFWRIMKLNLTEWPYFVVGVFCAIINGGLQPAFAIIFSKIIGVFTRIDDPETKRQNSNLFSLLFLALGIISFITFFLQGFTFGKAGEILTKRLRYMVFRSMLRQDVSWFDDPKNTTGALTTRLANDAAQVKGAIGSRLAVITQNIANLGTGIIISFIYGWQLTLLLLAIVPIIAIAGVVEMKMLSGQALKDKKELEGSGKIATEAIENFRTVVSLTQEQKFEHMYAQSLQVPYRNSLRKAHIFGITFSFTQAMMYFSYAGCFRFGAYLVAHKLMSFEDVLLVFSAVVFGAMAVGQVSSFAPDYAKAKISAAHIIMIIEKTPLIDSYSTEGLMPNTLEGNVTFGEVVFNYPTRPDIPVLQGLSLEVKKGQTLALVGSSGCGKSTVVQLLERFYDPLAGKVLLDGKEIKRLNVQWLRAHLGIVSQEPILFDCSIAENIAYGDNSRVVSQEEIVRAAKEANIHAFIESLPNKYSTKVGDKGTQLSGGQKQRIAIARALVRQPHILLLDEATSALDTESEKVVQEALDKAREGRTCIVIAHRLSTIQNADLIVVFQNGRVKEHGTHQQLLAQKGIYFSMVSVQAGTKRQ
Sequence of glycogen synthase kinase-3β (GSK-3β) (P49841 whole entry, species assumed): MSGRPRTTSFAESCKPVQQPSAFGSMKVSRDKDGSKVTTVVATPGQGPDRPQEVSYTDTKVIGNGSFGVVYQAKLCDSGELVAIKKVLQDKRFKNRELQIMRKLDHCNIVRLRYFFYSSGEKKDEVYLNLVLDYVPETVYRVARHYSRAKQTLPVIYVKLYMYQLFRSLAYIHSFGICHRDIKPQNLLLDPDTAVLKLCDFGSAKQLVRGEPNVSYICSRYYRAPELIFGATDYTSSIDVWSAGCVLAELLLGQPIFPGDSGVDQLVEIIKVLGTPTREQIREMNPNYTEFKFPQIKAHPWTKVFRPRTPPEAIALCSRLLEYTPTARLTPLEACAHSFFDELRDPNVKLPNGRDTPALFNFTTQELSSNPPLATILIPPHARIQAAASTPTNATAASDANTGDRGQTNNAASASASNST

In the case of `C(=N\NC1=NCCN1)/c1cccc2cc3c(/C=N/NC4=NCCN4)cccc3cc12` [Formula (III)], the apoptosis [1] is listed as “absence of apoptosis”, the cell cycle impairment [1] is listed as “G2M phase arrest” and the DNA damage response ([1]; telomerase-expressing cells and ALT-positive cell lines, partially co-localize at the telomere) is listed as “formation of γH2AX foci”. The “effect at the telomerase level” value (telomerase) was “suppressing its catalytic activity”.
In the case of `CN1C(=O)/C(=C2/C(=O)Nc3ccccc32)c2ccccc21` [Meisoindigo, meisoindigo], the “concentration of inhibition of GSK-3β” value [2] is given as 5 to 50 nM.
In the case of `C(=NNC1=NCCN1)c1c2ccccc2c(C=NNC2=NCCN2)c2ccccc12` [bisantrene, 9,10-anthracenedicarboxaldehyde bis[(4,5-dihydro-1H-imidazol-2-yl)hydrazine]dihydrochloride], the “administered dose found in the urine” value [3] is given as 3.4±1.1%, the DNA strand breaks (L1210 leukemia cells; L1210 leukemia cells, typical of inhibition of DNA topoisomerase II) is given as “induce protein-associated DNA strand breaks” and the DNA supercoiling (L1210 leukemia cells; indicative of DNA intercalation) is given as “induce altered DNA supercoiling”. For the same compound, the plasma clearance [4] was 1306±179 mL/min/m^2, the plasma concentration ([4]; dose of 56 mg/m^2) was 12 ± 6 ng/mL and the plasma concentration ([4]; dose of 260 mg/m^2) was 55 ± 8 ng/mL. For the same compound, the “urinary excretion of the dose” value ([4]; in 24 hr) was 4.6%, the “sensitivity in in vitro colony-forming assays” value (Human tumor cells; breast, ovarian, renal, small cell and non-small cell lung cancer, lymphoma, acute myelogenous leukemia, melanoma, gastric, adrenal, head and neck cancer) was “sensitive” and the “Activity in clonogenic assays from 684 patients” value (Human tumor cells; colorectal cancer) was “not in colorectal cancer”. The cross resistance (Human tumor cells; with Adriamycin and mitoxantrone) was “lack of cross resistance”, the volume of distribution [5] was 687 L/m^2 and the activity [6] was “inactive”. For the same compound, the “dose excreted in the urine” value (in vivo) was “Less than 7%”, the “route by which the majority of the drug is eliminated” value (in vivo) was “hepatobiliary route” and the “area under the plasma concentration×time curve” value (intravenous dose of 260 mg/m^2) was 4400 µg·h/mL. For the same compound, the “area under the plasma concentration×time curve” value (intravenous dose of 340 mg/m^2) was 5700 µg·h/mL, the beta phase (three phases of elimination) was “approximately 1.5 hours” and the initial distributive phase (three phases of elimination) was 6 min. The affinity constants (double-stranded DNA) was “above 10^6 M^−1”, the “activity in murine tumor models” value ([7]; P-388 leukemia and B-16 melanoma) was “antitumor activity” and the “activity in cancer models” value ([7]; intravenously (i.v.), intraperitoneally (i.p.), or subcutaneously (s.c.)) was “effective”. For the same compound, the “activity in cancer models” value ([7]; orally) was “inactive”, the “t½ α” value ([8]; another single dose study) was 3 min and the “t½ β” value ([8]; another single dose study) was 1 h. For the same compound, the “t½ γ” value ([8]; another single dose study) was 8 h, the “t½ α” value ([8]; first single dose study) was 3.44 min and the “t½ β” value ([8]; first single dose study) was 1.33 h. For the same compound, the “t½ γ” value ([8]; first single dose study) was 26.13 h, the “effect on platelet aggregation” value (Human Platelets) was “inhibit platelet aggregation” and the “time after treatment for which cytostatic macrophages could be isolated from peritoneal exudate” value (macrophages; cytostatic in cultures of P815 (mastocytoma) tumor cells) was 4 weeks. For the same compound, the “minimal effective in vivo dose” value (macrophages; macrophage activation) was about 25 mg/kg, the “bound to plasma proteins” value (plasma proteins) was “More than 95%” and the “administered dose excreted unchanged in the urine” value ([9]; in 24 hr) was 11.3%. For the same compound, the plasma clearance [9, 18] was 735 mL/min/m^2, the “steady state volume of distribution (Vdss)” value [9, 18] was 1845 L/m^2 and the “interaction with P-glycoprotein” value (P-glycoprotein) was “substrate for P-glycoprotein”. For the same compound, the activity (human colon cancer) was “inactive”, the cardiotoxicity ([10]; animals) was “not cardiotoxic” and the “toxicity compared with doxorubicin” value ([10]; cardiotoxicity context) was “less than that of the anthracycline doxorubicin”. For the same compound, the toxicities observed ([10]; dogs and monkeys, high doses) was “leukopenia, anorexia, diarrhea, injection site necrosis, enterocolitis, muscle degeneration, and pulmonary edema”, the “dose excreted in the urine” value [11] was 7.1% and the “t½ α” value [11] was 0.9 h. The “t½ β” value [11] was 9.7 h, the Brain levels [12] was “extremely low” and the “tissues with the highest concentration (in descending order)” value [12] was “kidney, liver, gallbladder, spleen, lung, and heart”. For the same compound, the metabolism in vitro [13] was “substrate for hepatic microsomal enzymes”, the “activity in Phase II clinical trials” value (metastatic breast cancer) was “active” and the patients reporting malaise ([14]; Yap et al. 1982) was “up to one-half of patients”. For the same compound, the “patients who experienced anaphylactoid reactions” value ([14]; following a bisantrene infusion) was “Up to 10%”, the nausea or vomiting ([14]; human, in vivo) was “very little nausea or vomiting” and the “radioangiocardiographic monitoring of cardiac function” value ([14]; patients receiving the drug) was “no decrease in ejection fraction”. The “cardiotoxicity compared with other agents” value ([14]; phase III trial) was “less cardiotoxic than mitoxantrone or doxorubicin”, the “Alopecia (hair loss) compared with doxorubicin” value ([14]; randomized trial in advanced breast cancer) was “less intense” and the Maximally tolerated dose ([15]; daily×5, repeat every 4 week (Spiegel et al. 1982)) was 80 mg/m^2. For the same compound, the “antitumor activity in phase I clinical trials” value ([15]; hepatocellular cancer and hypernephroma (one patient each), lymphoma, myeloma, melanoma, renal cancer, tumors of the bladder and lung) was “showed activity”, the Thrombocytopenia ([15]; human, in vivo) was “mild” and the “major dose-limiting toxic effect” value ([15]; human, in vivo) was “leukopenia”. For the same compound, the Maximally tolerated dose ([15]; monthly (every 3-4 week) (Von Hoff et al. 1981b)) was 260 mg/m^2, the Maximally tolerated dose ([15]; monthly, patients with poor bone marrow reserve (Von Hoff et al. 1981b)) was 240 mg/mg^2 and the “dose limiting toxicity (DLT)” value ([15]; phase I doses between 190-430 mg/m^2 q3w) was “neutropenia”. For the same compound, the “doses requiring a central line due to phlebitis” value ([15]; phase I study, 72 h) was “over 156 mg/m^2”, the MTD ([15]; phase I study, over 72 h) was 300 mg/m^2 and the nadir for myelosuppression ([15]; schedule of every 3 to 4 weeks) was 9 days. The recovery from myelosuppression ([15]; schedule of every 3 to 4 weeks) was at most 19 days, the Maximally tolerated dose ([15]; weekly×3 (Alberts et al. 1982)) was 200 mg/m^2 and the Maximally tolerated dose ([15]; weekly×3, patients with poor bone marrow reserve (Alberts et al. 1982)) was 150 mg/mg^2. The Maximally tolerated dose ([15]; weekly×3, repeat every 4-5 week (Yap et al. 1982)) was 150 mg/m^2 and the aqueous solubility [16] was “lack of aqueous solubility”.
For `O=C([O-])O.[Na+]` [sodium bicarbonate], the extravasation necrosis [17] is given as “blocked”.
